Entries after “also recorded” stand apart in the source; their conditions may differ. Counter-ions that a name gives are not always drawn.
Assays:
[1] = tested on: cyclophosphamide-induced alopecia in C57B16 mice; assay: Cyclophosphamide-induced alopecia in mice after anagen induction by depilation; assay type: in vivo; settings: for % of alopecia versus control: read on day 15
[2] = epinephrine 450 mM topical plus CYP at day 9

Brc1c(NC2=NCCN2)ccc2nccnc12 [Brimonidine, Brimonidine tartrate]
% of alopecia versus control ([1]; brimonidine 35 mM (1%) topical, 100 μL, at t-2 hours and repeated 2 hours later, CYP 120 mg/kg i.p. at day 9): prevents alopecia; also recorded: prevented hair loss
hair shedding in dorsal depilated area (representative pictures) ([1]; topical brimonidine, CYP-injected mice, day 15 after depilation): more hairs did not shed

CNC[C@H](O)c1ccc(O)c(O)c1 [Epinephrine, Epinephrine hydrochloride]
% of alopecia versus control ([1]; epinephrine 450 mM topical, 20 min before and 10, 40 and 60 min after CYP 120 mg/kg i.p. at day 9, hydrochloride): worsened it; also recorded: worsened alopecia
body weight of mice [2]: temporarily decreased the body weight

From patent publication US10231908B2, “Method of reducing hair loss associated with chemotherapy” (Galderma S.A., priority 2015, dated 2019)
